Test results published in EP2524688B1, “Composition for modified release comprising ranolazine” (ratiopharm GmbH, priority 2011, dated 2012).

Assay: Stability under stressed conditions (assay and degradation products)
Format: physicochemical
Settings: storage over 5 weeks at 40 °C with 75 % RH and open cap
Experimental: In Table 1 assay and degradation products results for ranolazine per se, a pharmaceutical composition of the present invention, comprising ranolazine and HPMC-AS as well as a comparative pharmaceutical composition known from the prior art under stressed conditions are shown. Herein the stressed conditions are defined as storage over 5 weeks at 40 °C with 75 % RH and open cap.

- Assay (%): 99.6%
- Biggest impurity % (RRt) (RRt in brackets in the row below): 0.066%
SMILES: COc1ccccc1OCC(O)CN1CCN(CC(=O)Nc2c(C)cccc2C)CC1 (racemic) [Ranolazine (raw material), (RS)-N-(2,6-Dimethylphenyl)-2-[4-[2-hydroxy-3-(2-methoxyphenoxy)propyl]piperazin-1-yl]acetamide]
